The numbers were not newly measured in PMC5863515, “Re-evaluation of Adrenocorticotropic Hormone and Melanocyte Stimulating Hormone Activation of GPR139 in Vitro” (Frontiers in Pharmacology, 2018), which cites them from elsewhere.

One may read the Kd as the equilibrium constant for the complex coming apart. As usually defined, the EC50 is the concentration needed to bring the measured effect to its halfway point.

In series [1] the target is T1, GPR139 (Homo sapiens, UniProt Q6DWJ6).
T1 sequence (Q6DWJ6 1-353): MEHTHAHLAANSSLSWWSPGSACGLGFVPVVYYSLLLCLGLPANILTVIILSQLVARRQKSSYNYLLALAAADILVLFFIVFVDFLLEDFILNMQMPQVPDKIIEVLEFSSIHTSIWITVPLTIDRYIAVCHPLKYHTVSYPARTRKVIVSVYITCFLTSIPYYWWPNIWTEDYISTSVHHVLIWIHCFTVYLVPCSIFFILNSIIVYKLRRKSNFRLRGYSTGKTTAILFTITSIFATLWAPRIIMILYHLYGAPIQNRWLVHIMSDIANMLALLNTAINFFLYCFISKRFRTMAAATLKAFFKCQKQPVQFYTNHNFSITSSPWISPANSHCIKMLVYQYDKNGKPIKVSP
Set-up: expressed in transfected cells; host or cells: CHO-TREx GPR139 clone#18; method as in Liu et al., 2015. Conditions: used for Cheng-Prussoff; ref Liu et al., 2015; read-out: Kd of [3H]JNJ-63533054; cited from earlier work.

Series [2] concerns the target T1, GPR139. Set-up: method as in Liu et al., 2015. Conditions: ref Liu et al., 2015; cited from earlier work.

As for `C[C@H](NC(=O)CNC(=O)c1cccc(Cl)c1)c1ccccc1` [JNJ-63533054, 3-chloro-N-[2-oxo-2-[[(1S)-1-phenylethyl]amino]ethyl]benzamide], in series [1], the Kd is 10 nM.

As to `N[C@@H](Cc1c[nH]c2ccccc12)C(=O)O` [L-Trp, L-tryptophan], in series [2], the EC50 is 30 to 300 µM.
